pKi: −log10 of the molar value.
Columns and labels:
[1] = small animal PET imaging of 2-[18F]FBTTP in healthy mice; format: in vivo; details: 350 μCi via tail vein, PET at 10 min, 30 min, 1 hour and 2 hours post-injection
Method: (R)-2-((2-amino-5-mercaptothiazolo[4,5-d]pyrimidin-7-yl)amino)-4-methylpentan-1-ol was synthesized as previously reported (Karlstrom et al., 2013) and alkylated with 2-[^18F]fluoro-benzylbromide to produce 2-[^18F]FBTTP. 2-[^18F]fluorobenzylbromide was prepared by a one-pot microwave radiofluorination of 2-formyl-N,N,N-trimethylbenzenanilinium triflate followed by sodium borohydride reduction, and bromination with 48% HBr using a procedure analogous to that reported for the preparation of 4-[^18F]fluoro-benzylbromide (Cho et al., 2012; Ravert et al., 2014). 2-[^18F]FBTTP (350 μCi) was injected via the tail vein of healthy mice and imaged using small animal PET. Images were collected at 10, 30, 60, and 120 min post-injection. 2-[^18F]FBTTP was prepared in a decay corrected yield of 10.2% in a specific activity of 1500 Ci/mmol (55,500 GBq/mmol) in a total synthesis time of 110 min.
To evaluate in vivo pharmacokinetics of 2-[^18F]FBTTP, 350 μCi of the radiotracer was formulated in 200 μL of saline with 10% ethanol and injected into healthy mice via the tail vein. The images were collected at 10 min, 30 min, 1 hour and 2 hours post-injection.

CXCR2 = biological target: T1, CXCR2 (Homo sapiens, UniProt P25025); details: cited from earlier work; for pKi: binding affinity, reported
T1 sequence (P25025 1-360): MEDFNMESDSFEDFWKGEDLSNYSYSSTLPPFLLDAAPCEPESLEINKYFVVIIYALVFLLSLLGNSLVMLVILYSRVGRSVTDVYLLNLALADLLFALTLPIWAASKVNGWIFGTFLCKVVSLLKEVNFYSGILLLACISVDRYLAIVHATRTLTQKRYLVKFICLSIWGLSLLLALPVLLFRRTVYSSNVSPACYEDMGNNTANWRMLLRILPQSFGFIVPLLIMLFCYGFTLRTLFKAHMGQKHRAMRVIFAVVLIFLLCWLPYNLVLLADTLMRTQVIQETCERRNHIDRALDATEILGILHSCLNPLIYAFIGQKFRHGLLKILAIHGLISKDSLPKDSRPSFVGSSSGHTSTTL

CX3CR1 = biological target: T2, CX3CR1 (Homo sapiens, UniProt P49238); details: binding affinity, reported; cited from earlier work
T2 sequence (P49238 1-355): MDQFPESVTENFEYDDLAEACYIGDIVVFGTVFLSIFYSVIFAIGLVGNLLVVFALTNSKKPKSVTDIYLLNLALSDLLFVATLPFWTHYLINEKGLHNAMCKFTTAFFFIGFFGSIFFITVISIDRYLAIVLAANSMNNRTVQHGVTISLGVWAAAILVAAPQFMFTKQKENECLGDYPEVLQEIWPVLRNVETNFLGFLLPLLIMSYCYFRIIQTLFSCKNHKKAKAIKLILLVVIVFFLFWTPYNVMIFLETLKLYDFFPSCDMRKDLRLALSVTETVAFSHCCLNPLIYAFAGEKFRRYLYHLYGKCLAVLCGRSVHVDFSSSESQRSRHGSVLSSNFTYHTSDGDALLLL

CC(C)CC(CO)Nc1nc(SCc2ccccc2[18F])nc2nc(N)sc12 (centres unmarked) [2-[^18F]FBTTP, 2-((2-amino-5-((2-[18F]fluorobenzyl)thio)thiazolo[4,5-d]pyrimidin-7-yl)amino)-4-methylpentan-1-ol]
in vivo pharmacokinetics [1]: favorable in vivo pharmacokinetics

CC(C)C[C@H](CO)Nc1nc(SCc2ccccc2F)nc2nc(N)sc12 [Compound 9d, (R)-2-((2-amino-5-((2-fluorobenzyl)thio)thiazolo[4,5-d]pyrimidin-7-yl)amino)-4-methylpentan-1-ol]
selectivity over CXCR2 (CXCR2; CX3CR1 over CXCR2): 18 fold

CC(C)C[C@H](CO)Nc1nc(SC(C)c2ccccc2F)nc2nc(N)sc12 (stereo partly drawn) [Compound 9e, (2R)-2-((2-amino-5-((1-(2-fluorophenyl)ethyl)thio)thiazolo[4,5-d]pyrimidin-7-yl)amino)-4-methylpentan-1-ol]
pKi (CX3CR1): 8.33 | pKi (CXCR2): 5.85

CC(C)C[C@H](CO)Nc1nc(SCc2ccc(Br)cc2F)nc2nc(N)sc12 [Compound 9f, (R)-2-((2-amino-5-((4-bromo-2-fluorobenzyl)thio)thiazolo[4,5-d]pyrimidin-7-yl)amino)-4-methylpentan-1-ol]
pKi (CXCR2): 5.85
